The results in this text go back to publication PMC6591272, “Midostaurin Reverses ABCB1-Mediated Multidrug Resistance, an in vitro Study” (Frontiers in Oncology, 2019).

Data set [1] concerns the target T1, ABCB1 transporter (P-gp/MDR1) (Homo sapiens, UniProt P08183). Put plainly: vanadate-sensitive ATPase assay in ABCB1-overexpressing membranes; supported by [3H]-paclitaxel efflux inhibition in KB-C2 cells. Type of data set: biochemical. The arrangement: cell membranes that overexpressed ABCB1.
Data set [2] deals with T1, ABCB1 transporter (P-gp/MDR1).

T1 sequence (P08183 whole entry): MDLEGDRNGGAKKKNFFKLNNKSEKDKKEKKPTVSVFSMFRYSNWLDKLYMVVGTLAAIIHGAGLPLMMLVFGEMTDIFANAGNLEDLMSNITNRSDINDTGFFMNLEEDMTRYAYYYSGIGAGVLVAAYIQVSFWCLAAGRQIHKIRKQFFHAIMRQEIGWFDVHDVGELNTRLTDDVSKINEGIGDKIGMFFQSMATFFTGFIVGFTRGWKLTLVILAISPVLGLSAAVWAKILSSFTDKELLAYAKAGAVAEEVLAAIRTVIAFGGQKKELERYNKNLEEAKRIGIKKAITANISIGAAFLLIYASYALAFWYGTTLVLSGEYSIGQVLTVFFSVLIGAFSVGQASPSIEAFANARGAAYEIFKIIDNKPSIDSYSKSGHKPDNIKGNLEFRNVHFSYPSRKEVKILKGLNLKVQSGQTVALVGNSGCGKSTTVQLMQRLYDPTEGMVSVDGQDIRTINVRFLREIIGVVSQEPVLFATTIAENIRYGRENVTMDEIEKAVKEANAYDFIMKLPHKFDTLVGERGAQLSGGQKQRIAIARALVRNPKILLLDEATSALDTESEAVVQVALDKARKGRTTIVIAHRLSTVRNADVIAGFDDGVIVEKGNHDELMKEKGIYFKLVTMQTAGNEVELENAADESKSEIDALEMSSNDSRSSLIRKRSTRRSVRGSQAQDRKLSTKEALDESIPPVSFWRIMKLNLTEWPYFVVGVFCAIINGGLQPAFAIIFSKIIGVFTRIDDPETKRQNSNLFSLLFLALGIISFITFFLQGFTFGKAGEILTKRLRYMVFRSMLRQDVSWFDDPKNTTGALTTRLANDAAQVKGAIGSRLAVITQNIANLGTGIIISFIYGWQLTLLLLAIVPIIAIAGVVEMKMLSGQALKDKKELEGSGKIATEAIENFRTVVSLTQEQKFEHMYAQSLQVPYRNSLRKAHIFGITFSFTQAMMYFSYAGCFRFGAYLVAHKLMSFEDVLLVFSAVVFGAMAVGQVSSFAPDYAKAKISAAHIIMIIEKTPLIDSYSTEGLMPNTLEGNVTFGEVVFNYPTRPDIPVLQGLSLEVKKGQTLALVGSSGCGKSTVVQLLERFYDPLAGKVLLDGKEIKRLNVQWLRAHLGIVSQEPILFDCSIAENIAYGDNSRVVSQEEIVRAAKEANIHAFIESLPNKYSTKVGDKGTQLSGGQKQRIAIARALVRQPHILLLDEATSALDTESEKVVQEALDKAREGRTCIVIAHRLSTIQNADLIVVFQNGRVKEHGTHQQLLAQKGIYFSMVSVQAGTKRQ

As to `CO[C@@H]1[C@H](N(C)C(=O)c2ccccc2)C[C@H]2O[C@]1(C)n1c3ccccc3c3c4c(c5c6ccccc6n2c5c31)C(=O)NC4` [midostaurin], in data set [1], the midpoint of inhibition, the IC50, lay at 3.1 µM.
For `CC(=O)O[C@H]1C(=O)[C@@]2(C)[C@H]([C@H](OC(=O)c3ccccc3)[C@]3(O)C[C@H](OC(=O)[C@H](O)[C@@H](NC(=O)c4ccccc4)c4ccccc4)C(C)=C1C3(C)C)[C@]1(OC(C)=O)CO[C@@H]1C[C@@H]2O` [paclitaxel], the “[3H]-paclitaxel accumulation and efflux in KB-C2 versus parental KB-3-1 cells” value in data set [2] is “midostaurin significantly decreased the efflux level of [^3H]-paclitaxel in ABCB1-overexpressing KB-C2 cells in a dose-dependent manner”.
